Measurements published in US10959993B2, “Combination of Bcl-2 inhibitor and MEK inhibitor for the treatment of cancer” (Genentech, Inc., priority 2015, dated 2021).

Legend:
AML cell lines [1] = experiment: Reverse phase protein array (RPPA) of sensitive v. resistant cell lines; type: cell-based; set-up: p16INK4a Mean. Res / p16INK4a Mean. Sens / p53 Mean. Res / p53 Mean. Sens / Bax Mean. Res / Bax Mean. Sens / Bim Mean. Res / Bim Mean. Sens / bRaf (T401) Mean. Res / bRaf (T401) Mean. Sens / Bcl-2 Mean. Res / Bcl-2 Mean. Sens: unit not given here
Method: (§1) Representative proteins that are differentially expressed between combination-sensitive and combination-resistant cells were shown. (FIG. 3E) The Bcl-2:BIM complex was measured by the MSD ELISA assay in AML cell lines, untreated, treated with venetoclax alone, treated with cobimetinib alone, or treated with cobimetinib/venetoclax at 1×IC50 values for 4 hrs.
(§2) Ongoing analysis of pharmacodynamic markers include transcriptome assessment by RNA sequencing, functional proteomics by reverse phase protein array (RPPA), and quantification of Bcl-2:BIM and MCL-1:BIM complexes using the electrochemiluminescent ELISA assay (Meso Scale Discovery, MSD-ELISA). RPPA is a high-throughput technology that performs protein assays on thousands of samples simultaneously. This protein array platform measures levels of protein expression, as well as protein modifications such as phosphorylation.

Bcl-2:BIM complex = target: T1, Bcl-2:BIM complex (Homo sapiens, UniProt P10415); experiment: MSD ELISA of Bcl-2:BIM complex; type: cell-based; conditions: 1×IC50, 4 hrs, preliminary MSD data
T1 construct: endogenous in cells; host or cells: AML cell lines (OCI-AML3 is the only one named for this read-out)
Method: as §1, §2
Representative proteins that are differentially expressed in sensitive and resistant cell lines to the combination. (FIGS. 3A, 3B, 3C, and 3D). […] (FIG. 3E).

[2] = tested on: AML stem/progenitor cells from primary AML; experiment: Mass cytometry (CyTOF) of intracellular signaling proteins; type: cell-based
Method: Mononuclear cells from primary AML were treated with cobimetinib at 1.0 μM for 2 hrs followed by 10 minutes plus or minus stimulation with G-CSF (100 ng/ml). The SPADE tree was generated using markers including CD7, CD117, CD123, CD64, CD34, CD26, CD45, TIM3, CD33, CD19, CD56, CD2, CD15, CD41, CD38, CD166, CD3, CD90, CD11b, CD135 and HLA-DR. FIG. 4A depicts representative markers from among those markers tested. The grey-scale color represents the expression levels of each indicated protein. (FIG. 4A) Bcl-2 family members at baseline in the gated stem/progenitor AML cell populations (AML4295468: CD34+CD38+CD123+CD33+; AML 4366894: CD34+CD38-CD123+CD33+). (FIG. 4B) The median intensity of each protein in the gated cell populations mentioned above. (FIG. 4C) The intracellular signaling protein activation in the gated populations mentioned above.
We next investigated signaling patterns and Bcl-2 family protein expression in AML stem/progenitor cells using a 34-antibody panel and time-of-flight mass cytometry (CyTOF). CyTOF is a variation of flow cytometry in which antibodies are labeled with heavy metal ion tags rather than fluorochromes. Readout is by time-of-flight mass spectrometry. This allows for the combination of many more antibody specificities in single samples, without significant spillover between channels. […] (FIG. 4A). […] To test the efficacy of both compounds in vivo, we injected NSG mice with genetically engineered OCI-AML3/Luc/GFP cells. […] (FIGS. 5A and 5B). To further explore the anti-leukemia efficacy of both compounds, we injected NSGS mice with genetically engineered […] cells.

OCI-AML3/Luc/GFP cells = experiment: OCI-AML3/Luc/GFP AML model in NSG mice; type: in vivo; conditions: compared to controls, more prominently in cobimetinib single agent and co-treated mice
Method: (§3) OCI-AML3/Luc/GFP cells (1×10^6 per mouse) were injected intravenously into NSG mice. (FIG. 5A) The luciferase intensity was quantified by serial bioluminescence imaging from 8 representative mice from 4 groups at week 5 post injection. (FIG. 5B) Overall survival rate in each group was estimated by the Kaplan-Meier method. 1×10^6 MOLM13-luci-GFP cells were injected into NSGS mice. Leukemia engraftment was confirmed on day 3 using Bioluminescence imaging (BLI). Mice were orally dosed daily with cobimetinib (10 mg/kg) or venetoclax (100 mg/kg) or in combination for 14 days. Luciferase intensity was shown on day 17 (FIG. 5C). Human CD45 engraftment in BM and spleen was determined by CyTOF. (FIG. 5D). The viable cell count was measured using Vi-Cell. (FIG. 5E). * *P: 0.01, ***P: 0.001.
(§4) We next investigated signaling patterns and Bcl-2 family protein expression in AML stem/progenitor cells using a 34-antibody panel and time-of-flight mass cytometry (CyTOF). CyTOF is a variation of flow cytometry in which antibodies are labeled with heavy metal ion tags rather than fluorochromes. Readout is by time-of-flight mass spectrometry. This allows for the combination of many more antibody specificities in single samples, without significant spillover between channels. […]

AML cell lines [3] = experiment: CellTiter-Glo in vitro cytotoxicity / growth inhibition, 72 hrs; type: cell-based; conditions: MOLM14, OCI-AML3, NB4 and THP1
Method: (FIG. 1A) The AML cell lines were treated with cobimetinib or venetoclax at 0.001, 0.01, 0.1 and 1.0 μM for 72 hrs. Calcusyn software was used to calculate the IC50 values and combination index (CI) based on the luminescent intensity that correlated with number of viable cells determined by the CellTiter-Glo assay.
The activity of 4-(4-{[2-(4-chlorophenyl)-4,4-dimethylcyclohex-1-en-1-yl]methyl}piperazin-1-yl)-N-({3-nitro-4-[(tetrahydro-2H-pyran-4-ylmethyl)amino]phenyl}sulfonyl)-2-(1H-pyrrolo[2,3-b]pyridin-5-yloxy)benzamide (ABT-199, or venetoclax) and [3,4-Difluoro-2-(2-fluoro-4-iodoanilino)phenyl]{3-hydroxy-3-[(2S)-piperidin-2-yl]azetidin-1-yl}methanone (cobimetinib) was examined in a panel of myeloid leukemia cell lines with diverse genetic alterations.

primary AML blasts = experiment: Long-term culture of primary AML blasts: apoptosis and growth inhibition by flow cytometry; type: cell-based; conditions: AML 4366894
Method: (FIG. 2A) Primary AML peripheral blood mononuclear cells were cultured in serum-Free Expansion Medium (SFEM) supplemented with BIT 9500 Serum Substitute and cytokines including stem cell factor (100 ng/ml), Flt3 ligand (50 ng/ml), IL-3 (20 ng/ml) and G-CSF (20 ng/ml) as well as SRI (1 μM). After culture for 5 days, cells were stained with CD45-PE, Annexin-V-APC and DAPI−. The apoptotic leukemia blasts (CD45dimAnnexin-V+) were determined by flow cytometry. Results were expressed as percentage of specific apoptosis calculated by the formula: 100×(% apoptosis of treated cells−% apoptosis of control cells)/(100−% apoptosis of control cells), or % growth inhibition of control using the viable cell counts determined by Annexin-/DAPI. […] MNCs isolated from patients with AML (100,000) or healthy donors (50,000) were plated in methylcellulose medium (1 mL/well; Cat. 04435; [sequence] Technologies Inc., Vancouver, BC, Canada) in triplicate per condition. Colonies were scored after 2 weeks of culture.

MOLM13-luci-GFP cells = experiment: MOLM13-luci-GFP AML model in NSGS mice; type: in vivo; conditions: cobimetinib 10 mg/kg, venetoclax 100 mg/kg orally daily for 14 days, compared to controls, more prominently in venetoclax and co-treated mice
Method: as §3, §4

[4] = cell lines resistant to cobimetinib
[5] = cell lines sensitive to cobimetinib
[6] = cell lines resistant to venetoclax
[7] = cell lines sensitive to venetoclax

T1 sequence (P10415 whole entry, one chain of several): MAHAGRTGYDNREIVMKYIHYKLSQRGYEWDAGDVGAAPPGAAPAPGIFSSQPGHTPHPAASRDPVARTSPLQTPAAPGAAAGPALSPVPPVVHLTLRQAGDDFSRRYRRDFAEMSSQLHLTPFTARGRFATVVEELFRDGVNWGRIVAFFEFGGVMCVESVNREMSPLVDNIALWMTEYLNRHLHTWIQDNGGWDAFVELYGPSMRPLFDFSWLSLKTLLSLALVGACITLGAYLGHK

In the case of `O=C(c1ccc(F)c(F)c1Nc1ccc(I)cc1F)N1CC(O)([C@@H]2CCCCN2)C1` [cobimetinib, [3,4-difluoro-2-(2-fluoro-4-iodoanilino)phenyl]{3-hydroxy-3-[(2S)-piperidin-2-yl]azetidin-1-yl}methanone], the “Bax Mean. Res” value (AML cell lines [1]; [4]) is reported as 1.010, the “Bim Mean. Res” value (AML cell lines [1]; [4]) is reported as 0.893 and the “ERK 1/2 (T202/Y204) Mean. Res” value (AML cell lines [1]; [4]) is reported as 1.073. The “FLT3 (Y589/591) Mean. Res” value (AML cell lines [1]; [4]) was 0.948, the “PTEN (S380) Mean. Res” value (AML cell lines [1]; [4]) was 1.049 and the “PTEN Mean. Res” value (AML cell lines [1]; [4]) was 1.013. For the same compound, the “RSK3 (T356/S360) Mean. Res” value (AML cell lines [1]; [4]) was 0.859, the “S6 (S235/236) Mean. Res” value (AML cell lines [1]; [4]) was 0.748 and the “p16INK4a Mean. Res” value (AML cell lines [1]; [4]) was 2.220. The “p38MAP (T180/Y182) Mean. Res” value (AML cell lines [1]; [4]) was 0.983, the “p53 Mean. Res” value (AML cell lines [1]; [4]) was 0.939 and the “Bax Mean. Sens” value (AML cell lines [1]; [5]) was 1.307. The “Bim Mean. Sens” value (AML cell lines [1]; [5]) was 1.175, the “ERK 1/2 (T202/Y204) Mean. Sens” value (AML cell lines [1]; [5]) was 1.988 and the “FLT3 (Y589/591) Mean. Sens” value (AML cell lines [1]; [5]) was 1.256. The “PTEN (S380) Mean. Sens” value (AML cell lines [1]; [5]) was 1.335, the “PTEN Mean. Sens” value (AML cell lines [1]; [5]) was 1.361 and the “RSK3 (T356/S360) Mean. Sens” value (AML cell lines [1]; [5]) was 1.495. The “S6 (S235/236) Mean. Sens” value (AML cell lines [1]; [5]) was 1.174, the “p16INK4a Mean. Sens” value (AML cell lines [1]; [5]) was 1.184 and the “p38MAP (T180/Y182) Mean. Sens” value (AML cell lines [1]; [5]) was 1.275. The “p53 Mean. Sens” value (AML cell lines [1]; [5]) was 1.373, the “Bcl-2:BIM complex” value (Bcl-2:BIM complex; AML cell lines) was “but not cobimetinib disrupted” and the “Bcl-2:BIM complex” value (Bcl-2:BIM complex; OCI-AML3 cells) was “accumulated”. The “G-CSF-evoked p-STAT3/5” value ([2]; AML 4295468, 1.0 μM for 2 hrs) was “only slightly reduced”, the “SCF-induced p-AKT” value ([2]; AML 4295468, 1.0 μM for 2 hrs) was “only slightly reduced” and the “basal and G-CSF- or SCF-stimulated p-ERK” value ([2]; AML 4295468, 1.0 μM for 2 hrs) was “efficiently down-regulated”. The “G-CSF-induced p-STAT3/5” value ([2]; AML 4366894, 1.0 μM for 2 hrs) was “not significantly changed”, the p-ERK ([2]; AML 4366894, 1.0 μM for 2 hrs) was “also reduced” and the “phosphorylation of STATS pathway” value ([2]; primary AML, 1.0 μM for 2 hrs) was “increased phosphorylation”. For the same compound, the “leukemia burden by bioluminescent imaging (BLI)” value (OCI-AML3/Luc/GFP cells) was “significantly reduced leukemia burden”.

For `CC1(C)CCC(CN2CCN(c3ccc(C(=O)NS(=O)(=O)c4ccc(NCC5CCOCC5)c([N+](=O)[O-])c4)c(Oc4cnc5[nH]ccc5c4)c3)CC2)=C(c2ccc(Cl)cc2)C1` [venetoclax, 4-(4-{[2-(4-chlorophenyl)-4,4-dimethylcyclohex-1-en-1-yl]methyl}piperazin-1-yl)-N-({3-nitro-4-[(tetrahydro-2H-pyran-4-ylmethyl)amino]phenyl}sulfonyl)-2-(1H-pyrrolo[2,3-b]pyridin-5-yloxy)benzamide], the “sensitivity of cell lines to single agent” value (AML cell lines [3]) was “resistant”, the “sensitivity of primary AML sample” value (primary AML blasts) was “resistant” and the “Bax Mean. Res” value (AML cell lines [1]; [6]) was 0.958. For the same compound, the “Bcl-2 Mean. Res” value (AML cell lines [1]; [6]) was 0.817, the “Bim Mean. Res” value (AML cell lines [1]; [6]) was 1.143 and the “PTEN (S380) Mean. Res” value (AML cell lines [1]; [6]) was 0.839. The “PTEN Mean. Res” value (AML cell lines [1]; [6]) was 0.704, the “S6 (S240/244) Mean. Res” value (AML cell lines [1]; [6]) was 1.918 and the “bRaf (T401) Mean. Res” value (AML cell lines [1]; [6]) was 1.263. For the same compound, the “p16INK4a Mean. Res” value (AML cell lines [1]; [6]) was 1.989, the “Bax Mean. Sens” value (AML cell lines [1]; [7]) was 1.227 and the “Bcl-2 Mean. Sens” value (AML cell lines [1]; [7]) was 1.081. The “Bim Mean. Sens” value (AML cell lines [1]; [7]) was 0.811, the “PTEN (S380) Mean. Sens” value (AML cell lines [1]; [7]) was 1.369 and the “PTEN Mean. Sens” value (AML cell lines [1]; [7]) was 1.495. For the same compound, the “S6 (S240/244) Mean. Sens” value (AML cell lines [1]; [7]) was 1.571, the “bRaf (T401) Mean. Sens” value (AML cell lines [1]; [7]) was 0.927 and the “p16INK4a Mean. Sens” value (AML cell lines [1]; [7]) was 1.593. For the same compound, the “Bcl-2:BIM complex” value (Bcl-2:BIM complex; AML cell lines) was “disrupted by venetoclax in most cell lines” and the “leukemia burden by bioluminescent imaging” value (MOLM13-luci-GFP cells) was “significantly reduced leukemia burden”.
